Results as given in PubChem BioAssay AID330 (DTP/NCI, 2004).
“And” between values parts separate entries of the source, which are not always exact repeats. Identical values can stand only once. Inconclusive results and toxic doses are left out. How the source made its calls: active means survival T/C of 150% or more; inactive means T/C below 125% in these data.

System: P388 leukemia ip, CD2F1 mice, survival T/C
Test: NCI In Vivo Anticancer Drug Screen. Data for tumor model P388 Leukemia (intraperitoneal) in CD2F1 (CDF1) mice
Conditions: endpoint: median survival time, higher = longer survival
Description: The antitumor activity of compounds was measured in mice bearing transplantable tumors. Survival or tumor size were measured and the results are expressed as the measurement made in the treated group (T) divided by the measurement made in the vehicle treated control group (C). The tumor model used in this assay is P388 Leukemia (intraperitoneal) in CD2F1 (CDF1) mice

[1] = dose: 50.0 mg/kg/injection, schedule: Q01DX009 (ip), vehicle: Klucel (hydroxypropylcellulose) (HPC)
[2] = dose: 100.0 mg/kg/injection, schedule: Q01DX009 (ip), vehicle: Klucel (hydroxypropylcellulose) (HPC)
[3] = dose: 50.0 mg/kg/injection, schedule: Q01DX009 (ip), vehicle: saline
[4] = dose: 100.0 mg/kg/injection, schedule: Q01DX009 (ip), vehicle: saline
[5] = dose: 200.0 mg/kg/injection, schedule: Q01DX009 (ip), vehicle: saline
[6] = dose: 60.0 mg/kg/injection, schedule: Q01DX005 (ip), vehicle: saline with Tween-80
[7] = dose: 120.0 mg/kg/injection, schedule: Q01DX005 (ip), vehicle: saline with Tween-80
[8] = dose: 240.0 mg/kg/injection, schedule: Q01DX005 (ip), vehicle: saline with Tween-80
[9] = dose: 25.0 mg/kg/injection, schedule: Q01DX005 (ip), vehicle: saline with Tween-80
[10] = dose: 50.0 mg/kg/injection, schedule: Q01DX005 (ip), vehicle: saline with Tween-80
[11] = dose: 100.0 mg/kg/injection, schedule: Q01DX005 (ip), vehicle: saline with Tween-80

Measured: T/C

CCOC(=O)c1c[nH]c2c(Cl)c(Cl)ccc2c1=O
inactive: [1] 102 % of control | [2] 95 % of control

O=C(O)CC[S-].[Ag+]
inactive: dose: 100.0 mg/kg/injection, schedule: Q04DX003 (ip), vehicle: saline 100 % of control | dose: 200.0 mg/kg/injection, schedule: Q04DX003 (ip), vehicle: saline 100 % of control | dose: 400.0 mg/kg/injection, schedule: Q04DX003 (ip), vehicle: saline 95 % of control

CC/C(=C(/CC)c1ccc(O)cc1)c1ccc(O)cc1
inactive: dose: 50.0 mg/kg/injection, schedule: Q01DX008 (ip), vehicle: saline with Tween-80 101 % of control | dose: 100.0 mg/kg/injection, schedule: Q01DX008 (ip), vehicle: saline with Tween-80 97 % of control | dose: 200.0 mg/kg/injection, schedule: Q01DX008 (ip), vehicle: saline with Tween-80 106 % of control | dose: 400.0 mg/kg/injection, schedule: Q01DX008 (ip), vehicle: saline with Tween-80 99 % of control

CCC(=O)NC(Cc1ccc(F)cc1)C(=O)O (configuration not stated)
inactive: [3] 90 % of control | [4] 88 % of control | [5] 90 % of control

CC(=O)CC(C)O (configuration not stated)
inactive: [3] 99 % of control | [4] 89 % of control | [5] 92 % of control

CCCCC(=O)C(=O)c1ccc(O)c(C)c1O
inactive: dose: 50.0 mg/kg/injection, schedule: Q01DX009 (ip), vehicle: saline with Tween-80 96 % of control | dose: 100.0 mg/kg/injection, schedule: Q01DX009 (ip), vehicle: saline with Tween-80 93 % of control | dose: 200.0 mg/kg/injection, schedule: Q01DX009 (ip), vehicle: saline with Tween-80 96 % of control

C=C1COC(=O)C12CC1CCCC(C)C1(C)C2 (configuration not stated)
inactive: dose: 4.0 mg/kg/injection, schedule: Q01DX009 (ip), vehicle: Klucel (hydroxypropylcellulose) (HPC) 93 % of control | dose: 8.0 mg/kg/injection, schedule: Q01DX009 (ip), vehicle: Klucel (hydroxypropylcellulose) (HPC) 96 % of control | dose: 16.0 mg/kg/injection, schedule: Q01DX009 (ip), vehicle: Klucel (hydroxypropylcellulose) (HPC) 94 % of control | dose: 32.0 mg/kg/injection, schedule: Q01DX009 (ip), vehicle: Klucel (hydroxypropylcellulose) (HPC) 102 % of control

COc1ccc(C(=O)CC2(O)C(=O)Nc3ccccc32)cc1O (configuration not stated)
inactive: [6] 105 % of control | [7] 102 % of control | [8] 102 % of control

CC1(C)OCC(C2OC3OC(C)(C)OC3C2=C(Br)Br)O1 (configuration not stated)
inactive: [6] 91 % of control | [7] 100 % of control | [8] 89 % of control

O=[N+]([O-])c1cc2c(cc1I)C1C(C3C2C2(Cl)C(Cl)=C(Cl)C3(Cl)C2(Cl)Cl)C2(Cl)C(Cl)=C(Cl)C1(Cl)C2(Cl)Cl (configuration not stated)
inactive: [3] 108 % of control | [4] 106 % of control | [5] 106 % of control

CCCNC1(N(C)C)N=C(N(C)C)N=C(N(C)C)O1 (configuration not stated)
inactive: dose: 50.0 mg/kg/injection, schedule: Q01DX005 (ip), vehicle: saline 102 % of control | dose: 100.0 mg/kg/injection, schedule: Q01DX005 (ip), vehicle: saline 95 % of control

O=C(O)c1c[nH]c2cc(-n3cccc3)ccc2c1=O
inactive: dose: 15.0 mg/kg/injection, schedule: Q01DX005 (ip), vehicle: saline with Tween-80 102 % of control | dose: 30.0 mg/kg/injection, schedule: Q01DX005 (ip), vehicle: saline with Tween-80 101 % of control | [6] 102 % of control and 88 % of control

CC(=O)OCc1ccc[n+]([O-])c1
inactive: dose: 25.0 mg/kg/injection, schedule: Q01DX009 (ip), vehicle: saline 99 % of control and 96 % of control | [3] 99 % of control and 103 % of control | [4] 99 % of control and 103 % of control | [5] 99 % of control and 86 % of control | dose: 400.0 mg/kg/injection, schedule: Q01DX009 (ip), vehicle: saline 99 % of control and 109 % of control

FC(F)(F)C1(C(F)(F)F)OS2(OC(C(F)(F)F)(C(F)(F)F)c3ccccc32)c2ccccc21
inactive: dose: 100.0 mg/kg/injection, schedule: Q04DX003 (ip), vehicle: Klucel (hydroxypropylcellulose) (HPC) 91 % of control | dose: 200.0 mg/kg/injection, schedule: Q04DX003 (ip), vehicle: Klucel (hydroxypropylcellulose) (HPC) 91 % of control | dose: 400.0 mg/kg/injection, schedule: Q04DX003 (ip), vehicle: Klucel (hydroxypropylcellulose) (HPC) 92 % of control

O=C(N/N=C/c1cc(Br)cc(Br)c1[O-])c1ccccc1.O=C(N/N=C/c1cc(Br)cc(Br)c1[O-])c1ccccc1.[Co+2]
inactive: dose: 100.0 mg/kg/injection, schedule: Q01DX001 (ip), vehicle: saline with Tween-80 86 % of control

O=C1c2ccccc2C(=O)N1C1Cc2nc3ccccc3n2C1=O (configuration not stated)
inactive: [6] 98 % of control | [7] 93 % of control | [8] 89 % of control

Cc1cc(C(C#N)c2ccc(Cl)cc2)c(Cl)cc1NC(=O)c1cc(I)cc(I)c1O (configuration not stated)
inactive: dose: 6.25 mg/kg/injection, schedule: Q01DX005 (ip), vehicle: saline with Tween-80 102 % of control | dose: 12.5 mg/kg/injection, schedule: Q01DX005 (ip), vehicle: saline with Tween-80 94 % of control | [9] 88 % of control

O=C1Nc2ccccc2/C1=C/c1ccco1
inactive: [1] 99 % of control | [2] 113 % of control | dose: 200.0 mg/kg/injection, schedule: Q01DX009 (ip), vehicle: Klucel (hydroxypropylcellulose) (HPC) 89 % of control

CCCCCCCCCCCC(=O)/C=C/c1ccc(Cl)c(Cl)c1
inactive: [1] 102 % of control | [2] 90 % of control

CCn1c2ccccc2n2c(=O)c(Cl)c(C)c(C#N)c12
inactive: [6] 100 % of control | [7] 98 % of control | [8] 97 % of control

O=NNc1cccnc1
inactive: dose: 3.12 mg/kg/injection, schedule: Q01DX009 (ip), vehicle: water 108 % of control | dose: 6.25 mg/kg/injection, schedule: Q01DX009 (ip), vehicle: water 101 % of control and 105 % of control | dose: 12.5 mg/kg/injection, schedule: Q01DX009 (ip), vehicle: water 107 % of control and 110 % of control

C=C1CC(O)C2C(=C)C(=O)OC2C2C(C)C(=O)CC12 (configuration not stated)
inactive: dose: 6.25 mg/kg/injection, schedule: Q01DX009 (ip), vehicle: Klucel (hydroxypropylcellulose) (HPC) 112 % of control | dose: 12.5 mg/kg/injection, schedule: Q01DX009 (ip), vehicle: Klucel (hydroxypropylcellulose) (HPC) 107 % of control | dose: 25.0 mg/kg/injection, schedule: Q01DX009 (ip), vehicle: Klucel (hydroxypropylcellulose) (HPC) 115 % of control | [1] 116 % of control

Cc1cc(N/N=C/c2ccc([N+](=O)[O-])cc2)c2cc3c(cc2n1)OCO3
inactive: dose: 12.5 mg/kg/injection, schedule: Q01DX005 (ip), vehicle: Klucel (hydroxypropylcellulose) (HPC) 100 % of control | dose: 25.0 mg/kg/injection, schedule: Q01DX005 (ip), vehicle: Klucel (hydroxypropylcellulose) (HPC) 102 % of control | dose: 50.0 mg/kg/injection, schedule: Q01DX005 (ip), vehicle: Klucel (hydroxypropylcellulose) (HPC) 101 % of control and 104 % of control

Cc1cc(=O)[nH]c2c(C)c(N)ccc12
inactive: [9] 95 % of control | [10] 104 % of control | [11] 95 % of control

Cc1c(C(=O)O)nc(C(Br)(Br)Br)[nH]c1=O
inactive: dose: 12.5 mg/kg/injection, schedule: Q01DX009 (ip), vehicle: distilled water + Tween-80 94 % of control | dose: 25.0 mg/kg/injection, schedule: Q01DX009 (ip), vehicle: distilled water + Tween-80 118 % of control | dose: 50.0 mg/kg/injection, schedule: Q01DX009 (ip), vehicle: distilled water + Tween-80 118 % of control | dose: 100.0 mg/kg/injection, schedule: Q01DX009 (ip), vehicle: distilled water + Tween-80 107 % of control | dose: 200.0 mg/kg/injection, schedule: Q01DX009 (ip), vehicle: distilled water + Tween-80 107 % of control

CCCCCCSCN(CC)CC
inactive: [3] 103 % of control | [4] 107 % of control | [5] 112 % of control

CC1(C)COC(c2c(F)cccc2Cl)=N1
inactive: [10] 100 % of control | [11] 100 % of control | dose: 200.0 mg/kg/injection, schedule: Q01DX005 (ip), vehicle: saline with Tween-80 98 % of control

C=C1C(=O)OC2C1C(OC(=O)/C(C)=C/C)CC1(COC(O)C1)C2C(=C)C (configuration not stated)
inactive: dose: 2.5 mg/kg/injection, schedule: Q01DX009 (ip), vehicle: saline + alcohol 107 % of control | dose: 5.0 mg/kg/injection, schedule: Q01DX009 (ip), vehicle: saline + alcohol 118 % of control | dose: 10.0 mg/kg/injection, schedule: Q01DX009 (ip), vehicle: saline + alcohol 109 % of control | dose: 20.0 mg/kg/injection, schedule: Q01DX009 (ip), vehicle: saline + alcohol 100 % of control
